{
  "source": "patent US20250134870A1",
  "about": "“PATHWAY MODULATOR, PHARMACEUTICAL COMPOSITION HAVING SAME, USE THEREOF, AND THERAPEUTIC METHOD USING SAME” (Jiangsu Yahong Meditech Co., Ltd., priority 2021, published 2025)",
  "key": {"congestive heart failure": {"tested_on": "congestive heart failure", "details": "cited from earlier work"}, "[1]": {"tested_on": "mesenteric lymph node immune cell subpopulations", "assay": "Flow cytometry of immune cell subpopulations and cytokines in mesenteric lymph nodes of DSS colitis mice (Examples 2, 4)", "format": "in vivo, C57BL/6J mice", "details": "30 mg/kg PO QD × 8 days (Test group 1#) vs solvent group", "protocol": "The experimental endpoint was 24 hours after administration on Day 8 for the positive drug control group and the Test group 1 #to Test group 7 #of Example 1; the experimental endpoint of the normal group and the solvent group was the same as that of the positive drug control group and Test group 1 #to Test group 7 #.\nAt the experimental endpoint, mesenteric lymphatic nodes were collected and treated as follows:\n1) The mesenteric lymph nodes were gently grinded and filtered with a […] strainer (BD bioscience, Catalog No. 352350) to obtain a cell suspension, and the cells were counted.\n2) The cells were suspended in a suspension solution (the suspension solution was prepared by the following process: diluting the cell activation mixture with a mixture of 90 v % 1640 medium and 10 v % fetal bovine serum to a concentration of 1×), the cell density was adjusted to 2.5×10^7/mL, and the cells were incubated at 37° C. for 5 hours. 3) The cells were washed with Dulbecco's Phosphate Buffered Saline, and stained with viable/dead stain (stain No. 12 in Table 5) at room temperature for 15 min to distinguish between viable cells and dead cells; the cells were washed with staining buffer (prepared by mixing fetal bovine serum and Dulbecco's Phosphate Buffered Saline at a volume ratio of 2:98), Fc block working solution (prepared by mixing Fc block and staining buffer at a volume ratio of 1:200) was added, and the cells were incubated at room temperature for 15 minutes.\n4) The cells were surface labeled with 100 μL of antibody staining solution for flow cytometry without washing and incubated at 4° C. for 30 minutes.\n5) The cells were washed once with staining buffer, 100 μL of cell fixative solution was added, and the cells were incubated at 4° C. overnight.\n6) 200 μL of cell permeabilization solution was added and incubated at 4° C. for 30 minutes.\n7) After washing with 250 μL of cell permeabilization solution, the cells were suspended with 100 μL of staining buffer and fluorescence was detected with a BD LSRFortessa instrument.\n8) The cell subpopulations analyzed by flow cytometry included CD4+ T cell subpopulation, IL-17A+CD4+ T cell subpopulation, IFN-γ+CD4+ T cell subpopulation, TNF-α+CD4+ T cell subpopulation, CD25+FOXP3+ Treg cell subpopulation; CD8+ T cell subpopulation, IL-17A+CD8+ T cell subpopulation, IFN-γ+CD8+ T cell subpopulation, TNF-α+CD8+ T cell subpopulation; CD69+B220+ B cell subpopulation and NK1.1+CD107a+ NK cell subpopulation."}, "[2]": {"tested_on": "2,4-dinitrobenzenesulfonic acid (DNBS)-induced colitis", "assay": "DNBS-induced colitis in rats: macroscopic evaluation of colon on Day 7 (colon length, weight, ulcer area, CW/CL, CW/BW, CW/CL/BW)", "format": "in vivo, Wistar rats", "details": "for inhibition at 3 mg/kg / inhibition at 10 mg/kg / inhibition at 30 mg/kg: Rattus norvegicus, 168 h; for BW / CW/BW ×100 / Ulcer area / Ulcer length / Ulcer width: mean", "protocol": "(3) Colon observation: after the end of the experiment, all animals were anesthetized with Zoletil (intravenous injection, 25 mg/kg) and the abdominal cavity was opened. Blood was collected from the abdominal aorta with EDTA anticoagulation (centrifugation conditions: 4° C., 2,000 g, 10 min). After the animals were sacrificed by bloodletting, the colon (from the cecum to the anus) was dissected and the colon length was measured immediately. The colon was longitudinally incised and rinsed until clean. Then the colon weight and ulcer area were recorded, and the colon was photographed as a whole and divided into three parts, among which two parts were stored at −80° C. after flash freezing with liquid nitrogen for MPO and cytokine detection, and the other part of colon was fixed with 10% neutral buffered formalin. If the ulcer was irregularly shaped, it could be considered as rectangular, and then its length and width were measured for ulcer area assessment. Ulcer area (cm^2)=ulcer length (cm)×ulcer width (cm)."}, "[3]": {"details": "G4 Test group 1#, 3 mg/kg PO QD × 7"}, "[4]": {"details": "G5 Test group 2#, 10 mg/kg PO QD × 7"}, "[5]": {"details": "G6 Test group 3#, 30 mg/kg PO QD × 7"}},
  "note": "Where two headings read alike, the source gives them in different places.",
  "data": [
    {"smiles": "NCc1c[nH]c(=S)n1[C@H]1CCc2c(F)cc(F)cc2C1", "note": "[Nepicastat]", "values": [
      {"measurement": "effect in the treatment of heart failure", "setting": "congestive heart failure; further clinical studies", "value": "no effect in the treatment of heart failure"},
      {"measurement": "tolerability", "setting": "congestive heart failure; patients, congestive heart failure", "value": "well tolerated in patients"},
      {"measurement": "proportion of CD4+ T cell subpopulation", "setting": "[1]", "value": "reduce the proportion"},
      {"measurement": "proportion of CD25+FOXP3+ Treg cell subpopulation", "setting": "[1]", "value": "increase the proportion"},
      {"measurement": "secretion of IFN-γ by CD4+ T cell subpopulation", "setting": "[1]", "value": "reduce the secretion"},
      {"measurement": "secretion of IL-17A by CD4+ T cell subpopulation", "setting": "[1]", "value": "reduce the secretion"},
      {"measurement": "secretion of TNF-α by CD4+ T cell subpopulation", "setting": "[1]", "value": "reduce the secretion"},
      {"measurement": "inhibition at 3 mg/kg", "setting": "[2]; 3 mg/kg (Test group 1#), read-out: inhibition rate of CW/BW", "value": 40.2, "unit": "%"},
      {"measurement": "inhibition at 3 mg/kg", "setting": "[2]; 3 mg/kg (Test group 1#), read-out: inhibition rate of CW/CL", "value": 30.8, "unit": "%"},
      {"measurement": "inhibition at 3 mg/kg", "setting": "[2]; 3 mg/kg (Test group 1#), read-out: inhibition rate of CW/CL/BW", "value": 33, "unit": "%"},
      {"measurement": "inhibition at 10 mg/kg", "setting": "[2]; 10 mg/kg (Test group 2#), read-out: inhibition rate of CW/BW", "value": 47.1, "unit": "%"},
      {"measurement": "inhibition at 10 mg/kg", "setting": "[2]; 10 mg/kg (Test group 2#), read-out: inhibition rate of CW/CL", "value": 43.8, "unit": "%"},
      {"measurement": "inhibition at 10 mg/kg", "setting": "[2]; 10 mg/kg (Test group 2#), read-out: inhibition rate of CW/CL/BW", "value": 45, "unit": "%"},
      {"measurement": "inhibition at 30 mg/kg", "setting": "[2]; 30 mg/kg (Test group 3#), read-out: inhibition rate of CW/BW", "value": 39.9, "unit": "%"},
      {"measurement": "inhibition at 30 mg/kg", "setting": "[2]; 30 mg/kg (Test group 3#), read-out: inhibition rate of CW/CL", "value": 26.7, "unit": "%"},
      {"measurement": "inhibition at 30 mg/kg", "setting": "[2]; 30 mg/kg (Test group 3#), read-out: inhibition rate of CW/CL/BW", "value": 27.1, "unit": "%"},
      {"measurement": "inhibition at 3 mg/kg", "setting": "[2]; G4 Test group 1#, 3 mg/kg PO QD × 7, read-out: IR1 (inhibition rate 1, CW/CL/BW)", "value": 33, "unit": "%"},
      {"measurement": "inhibition at 3 mg/kg", "setting": "[2]; G4 Test group 1#, 3 mg/kg PO QD × 7, read-out: IR2 (inhibition rate 2, CW/BW)", "value": 40.2, "unit": "%"},
      {"measurement": "inhibition at 3 mg/kg", "setting": "[2]; G4 Test group 1#, 3 mg/kg PO QD × 7, read-out: IR3 (inhibition rate 3, CW/CL)", "value": 30.8, "unit": "%"},
      {"measurement": "inhibition at 10 mg/kg", "setting": "[2]; G5 Test group 2#, 10 mg/kg PO QD × 7, read-out: IR1 (inhibition rate 1, CW/CL/BW)", "value": 45, "unit": "%"},
      {"measurement": "inhibition at 10 mg/kg", "setting": "[2]; G5 Test group 2#, 10 mg/kg PO QD × 7, read-out: IR2 (inhibition rate 2, CW/BW)", "value": 47.1, "unit": "%"},
      {"measurement": "inhibition at 10 mg/kg", "setting": "[2]; G5 Test group 2#, 10 mg/kg PO QD × 7, read-out: IR3 (inhibition rate 3, CW/CL)", "value": 43.8, "unit": "%"},
      {"measurement": "inhibition at 30 mg/kg", "setting": "[2]; G6 Test group 3#, 30 mg/kg PO QD × 7, read-out: IR1 (inhibition rate 1, CW/CL/BW)", "value": 27.1, "unit": "%"},
      {"measurement": "inhibition at 30 mg/kg", "setting": "[2]; G6 Test group 3#, 30 mg/kg PO QD × 7, read-out: IR2 (inhibition rate 2, CW/BW)", "value": 39.9, "unit": "%"},
      {"measurement": "inhibition at 30 mg/kg", "setting": "[2]; G6 Test group 3#, 30 mg/kg PO QD × 7, read-out: IR3 (inhibition rate 3, CW/CL)", "value": 26.7, "unit": "%"},
      {"measurement": "BW", "setting": "[2]; [3]", "value": 168.65, "unit": "g"},
      {"measurement": "CW/BW ×100", "setting": "[2]; [3]", "value": 1.05},
      {"measurement": "Ulcer area", "setting": "[2]; [3]", "value": 1.36, "unit": "cm^2"},
      {"measurement": "Ulcer length", "setting": "[2]; [3]", "value": 1.08, "unit": "cm"},
      {"measurement": "Ulcer width", "setting": "[2]; [3]", "value": 0.87, "unit": "cm"},
      {"measurement": "BW", "setting": "[2]; [4]", "value": 169.54, "unit": "g"},
      {"measurement": "CW/BW ×100", "setting": "[2]; [4]", "value": 1.01},
      {"measurement": "Ulcer area", "setting": "[2]; [4]", "value": 1.17, "unit": "cm^2"},
      {"measurement": "Ulcer length", "setting": "[2]; [4]", "value": 0.97, "unit": "cm"},
      {"measurement": "Ulcer width", "setting": "[2]; [4]", "value": 0.73, "unit": "cm"},
      {"measurement": "BW", "setting": "[2]; [5]", "value": 164.62, "unit": "g"},
      {"measurement": "CW/BW ×100", "setting": "[2]; [5]", "value": 1.05},
      {"measurement": "Ulcer area", "setting": "[2]; [5]", "value": 1.35, "unit": "cm^2"},
      {"measurement": "Ulcer length", "setting": "[2]; [5]", "value": 1.09, "unit": "cm"},
      {"measurement": "Ulcer width", "setting": "[2]; [5]", "value": 0.95, "unit": "cm"}
    ]}
  ]
}
